Source: patent publication US12213963B2, “Topical formulation of disease-modifying antirheumatic drug (DMARDs) for the treatment of rheumatoid arthritis, melanoma, squamous cell carcinoma, atopic dermatitis, and psoriasis” (priority 2022, dated 2025)

Test: Solubility of leflunomide in oils, surfactants and co-surfactants
Assay type: physicochemical
Method: Solubility of leflunomide was investigated in various oils, surfactants and co-surfactants. The selected excipients showing good solubility were further screened using turbidimetric method to check the emulsification efficiency of the system. Water titration method was used to select combination of oil, surfactant and co surfactant which provided clear systems with water. Briefly, the drug was dissolved in the oil by vortexing. Surfactant and co-surfactants were added to the oil phase and further titrated with water to check the ease of emulsification. The globule size of these systems was determined. Capryol® 90 and Capmul® PG2L were selected as the oil component. The solubility of the drug was highest in these oils and adequate to achieve the required drug loading. […] Out of the various gelling agents screened, Carbopol® 974P was selected because it formed uniform gel with good texture and consistency.

Cc1oncc1C(=O)Nc1ccc(C(F)(F)F)cc1 [leflunomide]
drug solubility in co-surfactant PEG 400: higher drug solubility | drug solubility in surfactants Tween 20 and Kolliphor RH 40: high drug solubility | solubility of the drug in oils Capryol 90 and Capmul PG2L (compared with other oils screened): highest
